Assay results from US20110112145A1, “Salts Of Methyl 2-((R))-(3-Chlorophenyl)((R)-1-((S)-2-(Methylamino)-3((R)-tetrahydro-2H-Pyran-3-YL)Propylcarbamoyl)Piperidin-3-YL)Methoxy)Ethylcarbamate” (priority 2008, published 2011).
Blank lines part the entries; values can stand above or below the molecule they belong to.

Key:
[1] = Oral bioavailability in Beagle dogs; type: in vivo, male Beagle dogs; details: Dog
Procedure: Oral pharmacokinetic data in male Beagle dogs was obtained for a solution formulation of Compound D and capsule formulations of Compound A-form I, Compound B-form I, and Compound C-form I. Compound D was administered by oral gavage as a clear, colorless solution in water containing 2% DMSO (final pH=3.5), which was filtered, using a 0.22 μm MILLEX-GV filter, prior to administration. The above noted Compounds A, B, and C were each administered at a dose of 5 mg/kg in gelatin capsules (1.37 mL). Blood (50 μL) was sampled at the following time intervals: 0, 20, 40, 60, 120, 180, 240, 360, 480, 600, and 1440 min.
(§1) The concentration of each compound was quantified by LC/MS/MS analysis of an aliquot (25 μL blood+25 μL water) of these samples and the overall blood exposure reported as the Dose-Normalized Area Under the Curve (DNAUC) from a concentration versus time plot and expressed in the units kilogram hours per liter (kg·h/L). All oral bioavailabilities were calculated by dividing the DNAUC from an oral segment by the DNAUC from an i.v. segment and multiplying by 100.

[2] = Oral bioavailability in Sprague-Dawley rats; type: in vivo, male Sprague-Dawley rats; details: for DNAUC (Dose-Normalized Area Under the Curve, blood) / Oral Bioavailability (%): Rat; for Oral Bioavailability (%): oral DNAUC / i.v. DNAUC x 100
Procedure: Oral pharmacokinetic data in male Sprague-Dawley rats was obtained for a solution formulation of Compound D and a suspension formulation of micronized Compound E. Compound D was administered by oral gavage as a clear, colorless solution in a formulation with 0.5% methylcellulose in water at a dose of 10 mg/kg (5 mL of dose solution per kg). Blood was sampled at the following time intervals: 0, 5, 15, 30, 60, 120, 180, 240, 360, 480, and 1440 min. Compound E was administered as a suspension by gastric bolus in a formulation with 1% methylcellulose in water at a dose of 5 mg/kg (10 mL of dose solution per kg). Blood (50 μL) was sampled at the following time intervals: 0, 20, 40, 60, 120, 180, 240, 360, 480, 720, 960, 1200, and 1440 min.
as §1

[3] = oral, gelatin capsule, 5 mg/kg, form I of each compound
[4] = oral, gelatin capsule, 5 mg/kg, form I of each compound, oral DNAUC / i.v. DNAUC x 100
[5] = oral gavage, solution in 0.5% methylcellulose in water, 10 mg/kg
[6] = gastric bolus, suspension of micronized compound in 1% methylcellulose in water, 5 mg/kg

- DNAUC (Dose-Normalized Area Under the Curve, blood) [1, 3]: 0.38 kg·h/L
- Oral Bioavailability (%) [1, 4]: 35%
SMILES: CN[C@H](CNC(=O)N1CCC[C@@H]([C@@H](OCCNC(=O)OC)c2cccc(Cl)c2)C1)C[C@H]1CCCOC1.CN[C@H](CNC(=O)N1CCC[C@@H]([C@@H](OCCNC(=O)OC)c2cccc(Cl)c2)C1)C[C@H]1CCCOC1.Cc1ccc(C(=O)O[C@@H](C(=O)O)[C@@H](OC(=O)c2ccc(C)cc2)C(=O)O)cc1 [Compound A]

- DNAUC (Dose-Normalized Area Under the Curve, blood) [1, 3]: 0.40 kg·h/L
- Oral Bioavailability (%) [1, 4]: 37%
SMILES: CC(=O)N[C@@H](Cc1ccccc1)C(=O)O.CN[C@H](CNC(=O)N1CCC[C@@H]([C@@H](OCCNC(=O)OC)c2cccc(Cl)c2)C1)C[C@H]1CCCOC1 [Compound B]

- DNAUC (Dose-Normalized Area Under the Curve, blood) [2, 5]: 0.048 kg·h/L
- Oral Bioavailability (%) [2, 5]: 37%
- DNAUC (Dose-Normalized Area Under the Curve, blood) ([1]; oral gavage, solution in water containing 2% DMSO (final pH=3.5), dose not given): 0.46 kg·h/L
- bioavailability ([1]; male, Beagle, whole blood, oral gavage, solution in water containing 2% DMSO (final pH=3.5), dose not given, oral DNAUC / i.v. DNAUC x 100): 43%
SMILES: CN[C@H](CNC(=O)N1CCC[C@@H]([C@@H](OCCNC(=O)OC)c2cccc(Cl)c2)C1)C[C@H]1CCCOC1.O=C(O)/C=C/C(=O)O [Compound D, methyl 2-((R)-(3-chlorophenyl)((R)-1-((S)-2-(methylamino)-3-((R)-tetrahydro-2H-pyran-3-yl)propylcarbamoyl)piperidin-3-yl)methoxy)ethylcarbamate fumaric acid]

- DNAUC (Dose-Normalized Area Under the Curve, blood) [2, 6]: 0.0067 kg·h/L
- Oral Bioavailability (%) [2, 6]: 5%
- in vivo oral bioavailability ([2]; statement in the background section, species not given): low
SMILES: CN[C@H](CNC(=O)N1CCC[C@@H]([C@@H](OCCNC(=O)OC)c2cccc(Cl)c2)C1)C[C@H]1CCCOC1.CN[C@H](CNC(=O)N1CCC[C@@H]([C@@H](OCCNC(=O)OC)c2cccc(Cl)c2)C1)C[C@H]1CCCOC1.O=C(O)c1cc2ccccc2c(Cc2c(O)c(C(=O)O)cc3ccccc23)c1O [Compound E, 2:1 pamoate salt of methyl 2-((R)-(3-chlorophenyl)((R)-1-((S)-2-(methylamino)-3-((R)-tetrahydro-2H-pyran-3-yl)propylcarbamoyl)piperidin-3-yl)methoxy)ethylcarbamate]

- DNAUC (Dose-Normalized Area Under the Curve, blood) [1, 3]: 0.64 kg·h/L
- Oral Bioavailability (%) [1, 4]: 59%
SMILES: CN[C@H](CNC(=O)N1CCC[C@@H]([C@@H](OCCNC(=O)OC)c2cccc(Cl)c2)C1)C[C@H]1CCCOC1.O=C(O)C(=O)O [Compound C]
